According to patent US20120214862A1, “MODULATION OF FACTOR 7 EXPRESSION” (ISIS Pharmaceuticals, Inc., priority 2009, published 2012):
In the oligonucleotide strings, read from the 5' end, every base follows the letter of its sugar. An asterisk marks phosphorothioate; unmarked linkages are phosphodiester. Other units and linkages are bracketed, terminal groups are in braces. A string of capitals states the bases alone. e = 2'-O-(2-methoxyethyl) (MOE); [5mC] = 5-methylcytosine; d = 2'-deoxy (DNA)

System: human Factor 7 mRNA
Assay: Antisense inhibition of human Factor 7 mRNA in HepB3 cells, lipofectin, 50 nM, real-time RT-PCR
Format: cell-based
Conditions: for % Inhibition (human Factor 7 mRNA): 50 nM, ~24 h
Method in brief: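 4,000 cells/well; ~24 h exposure; RNA isolated; probe set RTS 2927; normalised to RIBOGREEN® total RNA; % inhibition vs untreated.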

[1] = HepB3 cells, gapmers (5-10-5, 3-14-3, 2-13-5 MOE) targeted to nucleobases 4868 to 4899 of SEQ ID NO: 1
[2] = Example 4, HepB3 cells, lipofectin, relative to untreated control
[3] = HepB3 cells, lipofectin, 50 nM antisense oligonucleotide, approximately 24 hours, primer probe set RTS 2927, relative to untreated control
[4] = Example 1, HepB3 cells, lipofectin, relative to untreated control cells
[5] = HepB3 cells, gapmers targeted to nucleobases 13760 to 13789 of SEQ ID NO: 1 (Table 10)
[6] = HepB3 cells, gapmers targeted to nucleobases 11830 to 11869 of SEQ ID NO: 1 (Table 9)

422144 (antisense e[5mC]*e[5mC]*e[5mC]*eG*eA*dG*dT*dT*d[5mC]*dT*dG*d[5mC]*dA*dG*dG*eA*eG*e[5mC]*eG*eG) [compound 422144]
% Inhibition of human Factor 7 mRNA levels [1]: 58%

422197 (antisense eT*eT*eA*d[5mC]*dT*dG*dA*dG*d[5mC]*dG*d[5mC]*dG*dG*dA*dA*dG*dA*eA*eG*eG) [compound 422197]
% Inhibition (human Factor 7 mRNA) [2]: 26%

416436 (antisense eA*e[5mC]*eT*eG*eG*dT*d[5mC]*d[5mC]*d[5mC]*d[5mC]*dA*dT*d[5mC]*dA*d[5mC]*eT*eG*eT*eA*eA) [compound 416436]
% Inhibition of human Factor 7 mRNA levels [3]: 27%

422297 (antisense e[5mC]*e[5mC]*d[5mC]*dG*dA*dG*dT*dT*d[5mC]*dT*dG*d[5mC]*dA*dG*dG*eA*eG*e[5mC]*eG*eG) [compound 422297]
% Inhibition of human Factor 7 mRNA levels [1]: 63%

407668 (antisense eG*eA*eA*eG*e[5mC]*d[5mC]*dT*dT*dA*d[5mC]*d[5mC]*dT*dG*d[5mC]*d[5mC]*eA*eT*eG*eG*eA) [compound 407668]
% Inhibition (human Factor 7 mRNA) [4]: 54%

422109 (antisense e[5mC]*e[5mC]*e[5mC]*eG*e[5mC]*d[5mC]*dG*dG*d[5mC]*dT*d[5mC]*dT*dG*d[5mC]*dT*e[5mC]*eA*eT*e[5mC]*e[5mC]) [compound 422109]
% Inhibition of human Factor 7 mRNA levels [5]: 68%

422088 (antisense eT*e[5mC]*eA*eG*eG*dG*d[5mC]*dT*dG*dG*dT*dT*dT*dT*dG*eG*eA*eG*eG*eA) [compound 422088]
% Inhibition of human Factor 7 mRNA levels [6]: 8%

416541 (antisense e[5mC]*e[5mC]*eA*e[5mC]*e[5mC]*d[5mC]*dT*dT*dG*dG*dT*dG*d[5mC]*d[5mC]*d[5mC]*eA*eG*eA*eT*e[5mC]) [compound 416541]
% Inhibition of human Factor 7 mRNA levels [3]: 53%

422210 (antisense e[5mC]*eA*eG*d[5mC]*dA*d[5mC]*dA*d[5mC]*dA*dT*dG*dG*dA*dG*dT*d[5mC]*dA*eG*e[5mC]*eA) [compound 422210]
% Inhibition (human Factor 7 mRNA) (Example 6 microwalk, nucleobases 15098 to 15122 of SEQ ID NO: 1, HepB3, lipofectin): 25%

422240 (antisense eA*eG*dA*d[5mC]*dA*dA*dT*dG*dG*dT*d[5mC]*dA*dG*dG*dG*e[5mC]*eT*eG*eG*eT) [compound 422240]
% Inhibition of human Factor 7 mRNA levels [6]: 66%

416494 (antisense e[5mC]*eA*eG*eA*eT*dT*dT*dA*dA*dA*d[5mC]*dT*dG*d[5mC]*dA*eG*eA*eT*eG*eA) [compound 416494]
% Inhibition of human Factor 7 mRNA levels [3]: 0%

422299 (antisense eA*eG*d[5mC]*d[5mC]*d[5mC]*dG*dA*dG*dT*dT*d[5mC]*dT*dG*d[5mC]*dA*eG*eG*eA*eG*e[5mC]) [compound 422299]
% Inhibition of human Factor 7 mRNA levels [1]: 64%

416443 (antisense eG*eA*eG*eG*e[5mC]*dA*dG*dA*dA*dG*d[5mC]*dA*dG*dA*dT*eA*eT*eA*eG*eG) [compound 416443]
% Inhibition of human Factor 7 mRNA levels [3]: 17%

416511 (antisense eT*eT*eG*e[5mC]*eT*dG*dG*dG*dA*dG*dG*dA*d[5mC]*dG*dA*eG*eG*e[5mC]*e[5mC]*eT) [compound 416511]
% Inhibition of human Factor 7 mRNA levels [3]: 35%

407925 (antisense eG*eA*eA*eT*eA*dT*dA*dT*dG*dG*dG*dA*dT*dT*dT*eG*eG*eT*eG*e[5mC]) [compound 407925]
% Inhibition (human Factor 7 mRNA) [4]: 64%

416566 (antisense eG*eT*eT*eT*eG*dT*dA*dT*dG*dG*dA*dG*dA*dG*dA*e[5mC]*e[5mC]*eA*eA*eT) [compound 416566]
% Inhibition of human Factor 7 mRNA levels [3]: 0%

422118 (antisense e[5mC]*eG*eG*eA*eA*dG*dA*dA*dG*dG*dG*dA*d[5mC]*dG*dG*eA*eA*eG*eG*eT) [compound 422118]
% Inhibition (human Factor 7 mRNA) [2]: 15%

422163 (antisense eA*eG*eA*d[5mC]*dA*dA*dT*dG*dG*dT*d[5mC]*dA*dG*dG*dG*d[5mC]*dT*eG*eG*eT) [compound 422163]
% Inhibition of human Factor 7 mRNA levels [6]: 56%

407598 (antisense e[5mC]*e[5mC]*eA*eT*eG*dA*dT*dG*dA*dA*dA*dT*d[5mC]*dT*d[5mC]*eT*eG*e[5mC]*eA*eG) [compound 407598]
% Inhibition (human Factor 7 mRNA) [4]: 72%

422263 (antisense eG*eG*dA*dA*dG*dA*dA*dG*dG*dG*dA*d[5mC]*dG*dG*dA*eA*eG*eG*eT*eG) [compound 422263]
% Inhibition (human Factor 7 mRNA) [2]: 19%

416501 (antisense e[5mC]*eT*eG*e[5mC]*e[5mC]*d[5mC]*dT*dT*d[5mC]*d[5mC]*dA*d[5mC]*d[5mC]*dA*dA*eG*eT*eT*eT*eA) [compound 416501]
% Inhibition of human Factor 7 mRNA levels [3]: 18%

407669 (antisense eT*eA*eG*eA*e[5mC]*d[5mC]*d[5mC]*dT*d[5mC]*dA*dG*dT*dG*dA*dG*eT*eG*eT*e[5mC]*eG) [compound 407669]
% Inhibition (human Factor 7 mRNA) [4]: 57%

422126 (antisense eA*e[5mC]*eT*eG*eA*dG*d[5mC]*dG*d[5mC]*dG*dG*dA*dA*dG*dA*eA*eG*eG*eG*eA) [compound 422126]
% Inhibition (human Factor 7 mRNA) [2]: 22%

407894 (antisense eG*eT*eT*e[5mC]*e[5mC]*dG*dG*d[5mC]*d[5mC]*d[5mC]*dT*d[5mC]*dG*dA*dA*eG*eG*e[5mC]*eA*eG) [compound 407894]
% Inhibition (human Factor 7 mRNA) [4]: 77%

422105 (antisense eT*eG*eG*e[5mC]*eT*dG*dA*dG*dG*dA*dG*dA*d[5mC]*dA*dA*eT*eG*eG*eT*e[5mC]) [compound 422105]
% Inhibition of human Factor 7 mRNA levels [6]: 60%

422260 (antisense eG*e[5mC]*dG*d[5mC]*d[5mC]*dA*d[5mC]*d[5mC]*d[5mC]*dG*d[5mC]*d[5mC]*dG*dG*d[5mC]*eT*e[5mC]*eT*eG*e[5mC]) [compound 422260]
% Inhibition of human Factor 7 mRNA levels [5]: 56%

407628 (antisense eT*eG*eA*eT*eG*dA*d[5mC]*d[5mC]*dT*dG*d[5mC]*dG*d[5mC]*d[5mC]*dA*e[5mC]*e[5mC]*e[5mC]*eG*e[5mC]) [compound 407628]
% Inhibition (human Factor 7 mRNA) [4]: 38%

407926 (antisense e[5mC]*e[5mC]*eA*eG*eG*dA*d[5mC]*dA*dA*d[5mC]*d[5mC]*dT*dT*dG*dG*e[5mC]*eA*e[5mC]*eT*e[5mC]) [compound 407926]
% Inhibition (human Factor 7 mRNA) [4]: 79%

422264 (antisense e[5mC]*eG*dG*dA*dA*dG*dA*dA*dG*dG*dG*dA*d[5mC]*dG*dG*eA*eA*eG*eG*eT) [compound 422264]
% Inhibition (human Factor 7 mRNA) [2]: 24%

407893 (antisense eT*e[5mC]*eG*eA*eA*dG*dG*d[5mC]*dA*dG*dG*dG*dA*dG*dG*e[5mC]*eA*eG*eA*eA) [compound 407893]
% Inhibition (human Factor 7 mRNA) [4]: 33%

407951 (antisense eA*eA*e[5mC]*eA*eG*d[5mC]*dT*dT*dT*dT*dG*dT*dT*dT*dT*eT*eA*eA*eA*eA) [compound 407951]
% Inhibition (human Factor 7 mRNA) [4]: 0%

416433 (antisense eA*eG*eA*eA*eA*dT*d[5mC]*d[5mC]*dA*dG*dA*dA*d[5mC]*dA*dG*e[5mC]*eT*eT*e[5mC]*eG) [compound 416433]
% Inhibition of human Factor 7 mRNA levels [3]: 0%
